Results reported in paper PMC6152618, “Antimicrobial Activity of Truncated and Polyvalent Peptides Derived from the FKCRRWQWRMKKGLA Sequence against Escherichia coli ATCC 25922 and Staphylococcus aureus ATCC 25923” (Molecules : A Journal of Synthetic Chemistry and Natural …, 2017).
In brackets after ≈: the same amount, converted by molar mass. Like-named read-outs stand apart in the source and are kept apart here. Ends that are not written are not given here.

Experiments:
[1] = test system: Staphylococcus aureus ATCC 25923; assay type: cell-based
Procedure: (§1) The MIC was determined using a microdilution assay. In brief, bacterial strains were incubated for 18 to 24 h at 37 °C in an Müller-Hinton (MH) broth until an optical density of 0.15 to 0.30 (620 nm) was obtained. Next, 90 μL of Mueller-Hinton broth (MHB) was mixed with […], and serial dilutions (200, 100, 50, 25, 12.5 and 6.2) were prepared in 96-well microplates (final volume 100 μL/well). Then, 10 μL of inoculum (2 × 10^6 CFU/mL) was added to each well. The final volume in each well was 100 μL. Then they were incubated for 24 h at 37 °C; the absorbance at 620 nm was measured using an Asys Expert Plus ELISA reader. For determining the MBC, a small sample was taken from each well using an inoculation loop, and then was spread on MH agar plates and incubated overnight at 37 °C. MBC was considered on the plate which presented no bacterial growth. Each of these tests was performed twice (n = 2).

[2] = test system: Escherichia coli ATCC 25922; assay type: cell-based
Procedure: as §1

S. aureus [3] = test system: S. aureus; design: method as in PMID 8980754; details: cited from earlier work
E. coli O9 = test system: E. coli O9; design: method as in PMID 8980754; details: cited from earlier work
E. coli L361 = test system: E. coli L361; design: method as in PMID 8980754; details: cited from earlier work
S. aureus 42D = details: cited from earlier work
Excerpt: (§2) Please note that in this sequence some C-terminal positions have been changed compared to LfcinB 17–31 [38, 48]. The peptide LfcinB 17–31 has been studied for its relative structure and antibacterial activit ...

E. coli ML35 = details: cited from earlier work
Excerpt: as §2

E coli = details: cited from earlier work
Excerpt: as §2

S. aureus [4] = details: cited from earlier work
Excerpt: as §2

[5] = microdilution, Mueller-Hinton broth, 24 h at 37 °C, absorbance 620 nm, n = 2
[6] = sample of each well spread on MH agar, overnight 37 °C, no bacterial growth, n = 2

| Compound | MBC S. aureus ATCC 25923 ([1]; ATCC 25923) [µM] | MIC S. aureus ATCC 25923 ([1]; ATCC 25923, 24 h) [µM] | MBC E. coli ATCC 25922 ([2]; ATCC 25922) [µM] | MIC E. coli ATCC 25922 ([2]; ATCC 25922, 24 h) [µM] | other results |
| --- | --- | --- | --- | --- | --- |
| CSCC[C@H](NC(=O)[C@H](CCCNC(=N)N)NC(=O)[C@H](Cc1c[nH]c2ccccc12)NC(=O)[C@H](CCC(N)=O)NC(=O)[C@H](Cc1c[nH]c2ccccc12)NC(=O)[C@H](CCCNC(=N)N)NC(=O)[C@H](CCCNC(=N)N)NC(=O)[C@H](CS)NC(=O)[C@H](CCCCN)NC(=O)[C@@H](N)Cc1ccccc1)C(=O)N[C@@H](CCCCN)C(=O)N[C@@H](CCCCN)C(=O)N[C@@H](CC(C)C)C(=O)NCC(=O)N[C@@H](C)C(N)=O [LfcinB 17–31, reference compound] | – | – | – | – | MIC S. aureus ATCC 25923 [1, 5]: >200 µM; MBC S. aureus ATCC 25923 [1, 6]: >200 µM; MIC E. coli ATCC 25922 [2, 5]: 200 µM (≈ 399 µg/mL); MBC E. coli ATCC 25922 [2, 6]: >200 µM |
| CSCC[C@H](NC(=O)[C@H](CCCNC(=N)N)NC(=O)[C@H](Cc1c[nH]c2ccccc12)NC(=O)[C@H](CCC(N)=O)NC(=O)[C@H](Cc1c[nH]c2ccccc12)NC(=O)[C@H](CCCNC(=N)N)NC(=O)[C@H](CCCNC(=N)N)NC(=O)[C@H](C)NC(=O)[C@H](CCCCN)NC(=O)[C@@H](N)Cc1ccccc1)C(=O)N[C@@H](CCCCN)C(=O)N[C@@H](CCCCN)C(=O)N[C@@H](CC(C)C)C(=O)NCC(=O)N[C@@H](C)C(=O)O [[Ala^19]-LfcinB 17–31] | >200 | >200 | – | – | – |
| (FKARRWQWRMKKLGA)2K-Ahx-C [([Ala^19]-LfcinB 17–31)2] | – | – | – | – | MIC S. aureus ATCC 25923 [1, 5]: 12.5 µM; MBC S. aureus ATCC 25923 [1, 6]: 12.5 µM |
| CRRWQWRMKKLGA-NH2 [LfcinB 19–31] | >200 | >200 | 100 | 100 | – |
| FKCRRWQWR-Homoserine lactone [subfragment 1, literature peptide …-Homoserine lactone] | – | – | – | – | antibacterial activity against S. aureus (S. aureus [3]): > 50 µM; antibacterial activity against E. coli O9 (E. coli O9): 15 µM; antibacterial activity against E. coli L361 (E. coli L361): 10 µM |
| FKCRRWQWR-NH2 [LfcinB 17–25] | >200 | >200 | 100 | 100 | – |
| FKCRRWQWRM-NH2 [LfcinB 17–26] | – | – | – | – | MIC S. aureus ATCC 25923 [1, 5]: 200 µM; MBC S. aureus ATCC 25923 [1, 6]: 200 µM; MIC E. coli ATCC 25922 [2, 5]: 100 µM; MBC E. coli ATCC 25922 [2, 6]: 200 µM |
| FKCRRWQWRMK-NH2 [LfcinB 17–27] | >200 | >200 | 200 | 100 | – |
| FKCRRWQWRMKK-NH2 [LfcinB 17–28] | >200 | >200 | 200 | 200 | – |
| FKCRRWQWRMKKL-NH2 [LfcinB 17–29] | – | – | >200 | 200 | – |
| FKCRRWQWRMKKLG-NH2 [LfcinB 17–30] | >200 | >200 | 200 | 200 | – |
| KCRRWQWRMKKLGA [LfcinB 18–31, …, truncated peptide of LfcinB 17–31] | – | – | – | – | MIC S. aureus ATCC 25923 [1, 5]: >200 µM; MBC S. aureus ATCC 25923 [1, 6]: >200 µM; MIC E. coli ATCC 25922 [2, 5]: >200 µM; MBC E. coli ATCC 25922 [2, 6]: >200 µM |
| LfcinB 20–30: literature analogue of LfcinB 20-31 (CVRRAFALECI; lactoferricin B; UniProt P24627 55-65, looked up, fragment) | – | – | – | – | LD99.9 S. aureus 42D (S. aureus 42D): 7.5 µM; LD99.9 E. coli ML35 (E. coli ML35): 15 µM |
| RRWQWR-NH2 [LfcinB 20–25, reference compound] | >200 | >200 | >200 | >200 | – |
| RRWQWRMKKLGA [LfcinB 20–31] | >200 | >200 | >200 | 200 | – |
| RWQWRWQWR [(LfcinB 21–25)Pal] | – | – | – | 12.5 | – |
| SKCYQWQRRMRKLGA | – | – | – | – | MIC E coli (E coli): 252 µM; MIC S. aureus (S. aureus [4]): > 500 µM |
